These results are taken from publication PMC6832932, “Design and Selection of Novel C1s Inhibitors by In Silico and In Vitro Approaches” (Molecules, 2019).

The target of assay [1] is T1, C1s (Homo sapiens, UniProt P09871).
T1 construct: Recombinant C1s and C1r fragments (CCP1-CCP2-SP, the γB catalytic region); made in house
T1 sequence (P09871 438-688 limits assumed): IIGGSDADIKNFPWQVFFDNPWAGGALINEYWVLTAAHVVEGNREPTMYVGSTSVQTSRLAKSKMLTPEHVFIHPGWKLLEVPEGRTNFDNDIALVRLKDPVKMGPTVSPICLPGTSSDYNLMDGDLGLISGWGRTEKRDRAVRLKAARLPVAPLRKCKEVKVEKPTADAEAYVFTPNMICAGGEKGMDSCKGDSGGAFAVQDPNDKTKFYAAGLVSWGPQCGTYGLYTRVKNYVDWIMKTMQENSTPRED
Nature of the assay: C1s focused library screening (fluorescent substrate Boc-Leu-Gly-Arg-AMC, 10 µM). In kind it is biochemical. From the text: (§1) Recombinant C1s and C1r fragments (CCP1-CCP2-SP, the γB catalytic region) containing the serine protease domain were expressed in E. Coli BL21(DE3)pLysS host strain (transformed with pET-17b vector) in form of inclusion bodies; proteins were isolated, renatured and purified as published earlier. Recombinant C1s, isolated in intact proenzyme form, was activated by limited proteolysis using the recombinant, autoactivated C1r fragment. Activated C1s and C1r were separated using Q Sepharose HP (Amersham Biosciences, Little Chalfont, UK) anion exchange chromatography.
Two end-point assays have been developed for C1s inhibition assays: For screening assays a specific, fluorescent amide substrate Boc-Leu-Gly-Arg-AMC (Sigma, St. Louis, MO, USA), representing the cleavage site sequence of C2 was used with relatively high enzyme concentration (0.2 µM). Assay conditions: 20 mM HEPES (pH 7.4), 200 mM NaCl, 0.05% Tween20, 1% DMSO; 384 microplate format; 10 µL enzyme + 10 µL inhibitor compounds (final concentration: 10 µM); incubation time and temperature: 10 min, RT; then 20 µL substrate solution was added (1 mM final concentration); incubated (45 min, 30 °C) and the fluorescence have been read (355/460 nm; Wallac 1420 Victor2 microplate reader, Perkin Elmer, Waltham, MA, USA).

Assay [2] deals with T1, C1s. As to conditions: cited from earlier work.
In assay [3] the test system is C1s. Particulars: ref [47]; cited from earlier work.
For assay [4], the target named is T1, C1s. The assay can be described thus: C1s inhibition IC50 assay (thioester substrate Z-Lys-SBzl with DTNB, photometric). The assay is classed as biochemical.
Excerpt: as §1
40 µL enzyme + 10 µL inhibitor compounds were incubated (10 min, RT), and 50 µL substrate solution (1 mM final concentration) was added; incubated for 45 min and finally absorbance was read (405 nm) with a Perkin Elmer Wallac 1420 Victor2 microplate reader.

A further assay addresses T2, Human isolated Factor Xa (Homo sapiens, UniProt P00742).
T2 construct: purchased ThermoFisher Scientific (Waltham, MA, USA)
The assay can be described thus: Factor Xa activity assay (fluorescent substrate Boc-Leu-Gly-Arg-AMC). The assay is classed as biochemical. Particulars: 10 µM compound. How it is done:
Human isolated Factor Xa protein was purchased from ThermoFisher Scientific (Waltham, MA, USA). An end-point assay was carried out using the fluorescent amide substrate Boc-Leu-Gly-Arg-AMC used for C1s 10 µM screen; assay conditions: 20 mM HEPES (pH 7,8) 100 mM NaCl, 10 mM CaCl2 30 °C, 0.05% TWEEN-20, 1% DMSO; low enzyme concentration (about 1 nM); in a 96 well microplate format (in 100 µL), using non-binding black plates (Greiner).

In assay [5] the target is T1, C1s. Particulars: ref [49]; read-out: IC50 C1s, reported value; cited from earlier work.
Setting [6] is: 1 mM Z-Lys-SBzl, enzyme below 1 nM, read-out: IC50 C1s.
The mark [7] stands for this setting: 1 mM ZLysSBzl, Figure S1 curves, read-out: IC50 C1s.

Like-named read-outs stand apart in the source and are kept apart here.

T2 sequence (P00742 235-488 limits assumed): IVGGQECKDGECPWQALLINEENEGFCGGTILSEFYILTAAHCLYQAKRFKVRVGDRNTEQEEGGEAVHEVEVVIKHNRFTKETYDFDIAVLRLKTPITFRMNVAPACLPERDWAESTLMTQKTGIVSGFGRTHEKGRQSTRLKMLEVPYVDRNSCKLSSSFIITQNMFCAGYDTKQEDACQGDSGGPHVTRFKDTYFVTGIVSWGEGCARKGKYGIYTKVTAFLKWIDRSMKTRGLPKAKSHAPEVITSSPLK
T2 sequence (P00742 41-179 partner limits assumed): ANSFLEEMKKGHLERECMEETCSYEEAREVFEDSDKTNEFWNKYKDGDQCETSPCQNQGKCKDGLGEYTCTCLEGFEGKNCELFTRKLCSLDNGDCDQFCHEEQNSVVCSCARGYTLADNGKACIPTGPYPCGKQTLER

With `O=C(c1ccc(C(=O)n2nnc3ccccc32)cc1)n1nnc2ccccc21` [1-[4-(1,2,3-benzotriazole-1-carbonyl)benzoyl]-1,2,3-benzotriazole], the “C1s inhibitory activity (in words)” value at C1s [1] was “inactive”.

Consider `O=C(c1ccc2c(c1)OCO2)C1C2C(=O)N(c3ccc4c(c3)OCCO4)C(=O)C2C2c3ccccc3C=CN12` (stereo not shown) [4,257,399], for which the IC50 at C1s [2] (ref PubChem, read-out: IC50 C1s) is 880 nM.

For the compound `CSc1nc(-c2ccco2)nn1C(=O)c1ccco1` [7 965 558], the IC50 at C1s [2] (seed compounds for 2D similarity search, ref PubChem [9],[10], read-out: IC50 (seed compounds)) was 4480 nM.

For `O=c1oc(-c2ccccc2I)nc2ccccc12` [CID296008, 2-(2′-iodophenyl)-3,1-benzoxazin-4-one], the IC50 with C1s [3] is 1250 nM.

As for `O=c1oc(-c2ccco2)nc2ccc(Cl)cc12` [Entry 15], the 50% inhibitory concentration (IC50) on C1s [4] (setting [6]) is 6700 nM; on C1s [4] (setting [7]), 6680 nM. For the same compound, the remaining activity at 10 µM at Human isolated Factor Xa is 82%.

Regarding `CC(=O)Oc1ccc2nc(-c3ccco3)oc(=O)c2c1` [Entry 16], on C1s [4] (setting [6]), the IC50 stood at 29000 nM. This compound gave a remaining activity at 10 µM on Human isolated Factor Xa of 77.6%.

Turning to `Cc1sc2nc(-c3ccco3)oc(=O)c2c1C` [Entry 17], on C1s [4] (setting [6]), the IC50 amounted to 549 nM. This compound also returned a remaining activity at 10 µM at Human isolated Factor Xa of 100%. Besides, the “C1s inhibitory activity as reported in ChEMBL and PubChem (in words)” value at C1s [2] (ref [9]) was “inactive”.

In the case of `Cc1cc2c(=O)oc(-c3ccccc3Br)nc2s1` [Entry 18], the IC50 on C1s [4] (setting [6]) worked out at 845 nM; at C1s [4] (setting [7]), 846 nM. Besides, on Human isolated Factor Xa, the remaining activity at 10 µM amounted to 46.1%.

Take `O=c1nc(-c2cccs2)oc2cc(Cl)ccc12` [Entry 21]: the half-inhibitory concentration (IC50) came to 241 nM on C1s [4] (setting [6]) and 240 nM on C1s [4] (setting [7]). At Human isolated Factor Xa, this compound registered a remaining activity at 10 µM of 53.6%.

Turning to `O=c1nc(-c2ccco2)oc2ccc(Cl)cc12` [Entry 22], the IC50 on C1s [4] (setting [6]) turned out to be 3600 nM. Also, the remaining activity at 10 µM at Human isolated Factor Xa was determined as 0.14%.

For the compound `N=C(N)c1ccc2cc(OC(=O)c3ccc(N=C(N)N)cc3)ccc2c1` [FUT175, nafamostat, reference compound], the half-maximal inhibitory concentration (IC50) was 2 nM on C1s [4] (validation with FUT175, read-out: IC50 C1s (assay validation)) and 320 nM at C1s [5].
